In publication PMC5471252, “Anti-leukemia activity of a Hsp70 inhibitor and its hybrid molecules” (Scientific Reports, 2017):
“Also recorded” adds a separate entry of the source.

Columns and labels:
Jurkat cells = experiment: MTT assay, cell viability of Jurkat cells; type: cell-based; conditions: Homo sapiens, 48 h, mean ± s.d., n = 3, read-out: IC50 values of compounds for leukemia cells
HL-60 and K562 cells = experiment: Flow cytometry, fluorescein-annexin V and PI staining; type: cell-based, human; conditions: 24 h; 10 µM Az, 10 µM GD or 4 µM Az-O3-GD
Description: To determine whether Az promotes leukemia cell death via apoptosis, acute leukemia HL-60 and chronic leukemia K562 cells were independently incubated with Az. The treated cells were then exposed to a mixed solution of fluorescein-annexin V and propidium iodide (PI) and flow cytometry analysis was conducted. […] The size of the treated cells was also assessed by using flow cytometry. […] We also investigated if the mitochondrial membrane potential in cells treated with Az is disrupted. To test this possibility, HL-60 and K562 cells were exposed to Az and subsequently stained with a membrane potential sensitive JC-1 probe. […] This serves as another evidence for apoptosis induced by Az.
HL-60 and K562 cells were incubated with each compound for 24 h in culture media. Cells were re-suspended with 500 μL binding buffer (10 mM HEPES, […] and 2.5 mM CaCl2, pH 7.5) and then incubated with the FITC-annexin V apoptosis detection kit with PI according to the protocol provided by the manufacturer. Flow cytometry was carried out by using a BD FACSVerse™ instrument (BD Biosciences) and the data were analyzed by using a FlowJo™ software (BD Biosciences).

KG-1 cells = experiment: MTT assay, cell viability of KG-1 cells; type: cell-based; conditions: Homo sapiens, 48 h, mean ± s.d., n = 3, read-out: IC50 values of compounds for leukemia cells
THP-1 cells = experiment: MTT assay, cell viability of THP-1 cells; type: cell-based; conditions: Homo sapiens, 48 h, mean ± s.d., n = 3, read-out: IC50 values of compounds for leukemia cells
[1] = test system: AIF translocation in HL-60 and K562 cells; experiment: AIF translocation to the nucleus (western blot, immunocytochemistry); type: cell-based, human; conditions: 24 h; 2 μM for Az-O3-GD
Source text: Apoptosis-inducing factor (AIF) is known to be translocated from the cytosol to the nucleus during caspase-independent apoptosis (Supplementary Fig. S8b)[39]. In addition, it is also known that Hsp70 interacts with AIF directly and this interacting event results in blocking translocation of AIF to the nucleus and, in turn, prevents caspase-independent apoptosis. Because of these phenomena, we tested if Az has an influence on AIF-mediated caspase-independent apoptosis. To probe this issue, HL-60 and K562 cells were exposed to Az and the levels of AIF in the cytosolic and nuclear fractions were then determined. AIF translocation to the nucleus was not observed in Az-treated cells, based on western blot analysis (Fig. 4d). Additional evidence to support this conclusion was obtained from immunocytochemical analysis of leukemia cells treated with Az (Fig. 4d).
(§1) Western blot analysis. […] peroxidase-conjugated goat anti-rabbit IgG (1:2000, Santa Cruz Bio Technology) and goat anti-mouse IgG (1:2000, Santa Cruz Bio Technology) were used as the secondary antibodies. The blots were developed by using a West-ZOL® plus Western Blot Detection System (Intron Biotechnology Inc., South Korea). Western blot signals were analyzed by using a G:BOX Chemi Fluorescent & Chemiluminescent Imaging System.
Immunocytochemistry. […] Cell images were analyzed using the ZEN 2011 software.

[2] = test system: Ba/F3 cells producing imatinib-resistant mutant Bcr-Abl (T315I); experiment: MTT assay, Ba/F3 cells producing mutant Bcr-Abl (T315I); type: cell-based, murine; conditions: Mus musculus, BaF3, 24 h, read-out: IC50 values, cytotoxicity towards cells expressing mutant Abl
Description: Next, the cytotoxic effects of Az on wild-type and mutant Bcr-Abl expressing cells were evaluated.
Cells were exposed to each compound (a HCl salt form) at various concentrations for indicated time periods (24 or 48 h) in culture media. MTT assays were conducted according to known procedures. The absorbance at 570 nm was determined by employing a microplate reader (TECAN, Infinite® 200 PRO).
Cells were treated with various concentrations of each compound for 24 h. Cell death was measured by using an MTT assay (mean ± s.d., n = 3).

[3] = test system: Hsp70 level in HL-60 and K562 cells; experiment: Western blot of Hsp70 and Hsp90 levels; type: cell-based, human; conditions: cells treated 24 h
Description: Because Az-O3-GD promotes caspase activation in leukemia cells, it was anticipated that procaspase-9, procaspase-3 and PARP would be cleaved in treated cells. To test this possibility, HL-60 and K562 cells were exposed to Az-O3-GD, along with Az and GD as controls and western blot analysis was then carried out. […] Although Az-O3-GD upregulates Hsp70, the presence of the Hsp70 inhibitor in this hybrid causes its cytotoxicity against leukemia cells to be higher than that of GD. Finally, we examined the effect of Az-O3-GD on AIF-mediated caspase-independent apoptosis. To this end, HL-60 and K562 cells were incubated with Az-O3-GD for 24 h.
as §1

Which results are given for `COc1ccc(-c2nc(-c3cc(C(F)(F)F)cc(C(F)(F)F)c3)n(Cc3ccc(C(=O)NCCOCCOCCN)cc3)c2-c2ccc(OC)cc2)cc1` [Az, apoptozole]?
IC50 (Jurkat cells): 3.1 ± 0.61 µM; apoptosis, annexin V binding and PI uptake (HL-60 and K562 cells): positive annexin V binding and positive PI uptake; also recorded: induces apoptosis; IC50 (KG-1 cells): 3.3 ± 0.71 µM; IC50 (THP-1 cells): 3.7 ± 0.73 µM; AIF translocation to the nucleus [1]: not observed; IC50 [2]: 2.2 µM; translational level of Hsp70 [3]: does not affect the translational levels of Hsp70 and Hsp90
